Results from patent US9211310B2, “Use of a Chinese medicine composition in preparing medicaments for treating secondary prevention of myocardial infarction” (TASLY PHARMACEUTICAL GROUP CO., LTD, priority 2010, dated 2015).

Tested on: patients after acute myocardial infarction
Assay: Life quality, Seattle Angina Questionnaire (SAQ), same clinical trial
Format: in vivo, human
Conditions: PP
Text: 3508 patients who were in accordance with the diagnostic standards of AMI for 28 days to 2 years and differentiated as Qi deficiency and blood stagnation syndrome by TCM were studied. 0.5 g Chinese medicine composition prepared by the method of EXAMPLE 1 (Coded as QSYQ) was administrated half an hour after meal, 3 times per day.
There were 19 questions in the Seattle angina questionnaire (SAQ), including 5 parts: physical limitation (PL), anginal stability (AS), anginal frequency (AF), treatment satisfaction (TS) and disease perception (DP). After being given necessary explanation by doctors, the questions were answered independently by patients.
They included the overall survival time, angina pectoris score, TCM symptom score and life quality score, where angina pectoris score, TCM symptom score and life quality score were evaluated at randomization, in 1st, 3rd, 6th, 9th, 12th month after treatment and 18th month after follow-up.
All evaluation results of SAQ were described during the period of observation, and Wilcoxon rank sum test was used for inter-group comparison.
The evaluation results in the SAQ were depicted in different observations, and inter-group comparison was tested by Wilcoxon Rank-sum test.

[1] = Follow-up, second line headed Not limited (r60)

## CC(=O)Oc1ccccc1C(=O)O [Control group, aspirine]
Baseline
  SAQ 7th question, Highly satisfied: % of patients: (20.32%)
  SAQ 7th question, Highly satisfied: number of patients: 304
  SAQ 7th question, Mostly dissatisfied: % of patients: (4.88%)
  SAQ 7th question, Mostly dissatisfied: number of patients: 73
  SAQ 7th question, Mostly satisfied: % of patients: (46.52%)
  SAQ 7th question, Mostly satisfied: number of patients: 696
  SAQ 7th question, Partly satisfied: % of patients: (27.94%)
  SAQ 7th question, Partly satisfied: number of patients: 418
  SAQ Question 1-1 Mildly limited, number of patients: 30
  SAQ Question 1-1 Mildly limited, percent of patients: (2.01%)
  SAQ Question 1-1 Moderately limited, number of patients: 13
  SAQ Question 1-1 Moderately limited, percent of patients: (0.87%)
  SAQ Question 1-1 Not limited, number of patients: 1359
  SAQ Question 1-1 Not limited, percent of patients: (90.96%)
  SAQ Question 1-1 Other reasons, number of patients: 4
  SAQ Question 1-1 Other reasons, percent of patients: (0.27%)
  SAQ Question 1-1 Severely limited, number of patients: 1
  SAQ Question 1-1 Severely limited, percent of patients: (0.07%)
  SAQ Question 1-1 Slightly limited, number of patients: 87
  SAQ Question 1-1 Slightly limited, percent of patients: (5.82%)
  SAQ Question 1-2 Mildly limited, number of patients: 42
  SAQ Question 1-2 Mildly limited, percent of patients: (2.81%)
  SAQ Question 1-2 Moderately limited, number of patients: 13
  SAQ Question 1-2 Moderately limited, percent of patients: (0.87%)
  SAQ Question 1-2 Not limited, number of patients: 1319
  SAQ Question 1-2 Not limited, percent of patients: (88.29%)
  SAQ Question 1-2 Other reasons, number of patients: 5
  SAQ Question 1-2 Other reasons, percent of patients: (0.33%)
  SAQ Question 1-2 Severely limited, number of patients: 2
  SAQ Question 1-2 Severely limited, percent of patients: (0.13%)
  SAQ Question 1-2 Slightly limited, percent of patients: (7.56%)
  SAQ Question 1-6: Mildly limited, patients (%): (20.58%)
  SAQ Question 1-6: Moderately limited, patients (%): (18.43%)
  SAQ Question 1-6: Not limited, patients (%): (25.02%)
  SAQ Question 1-6: Other reasons, patients (%): (1.01%)
  SAQ Question 1-6: Severely limited, patients (%): (6.99%)
  SAQ Question 1-6: Slightly limited, patients (%): (27.98%)
  SAQ Question 1-7: Mildly limited, patients (%): (25.03%)
  SAQ Question 1-7: Moderately limited, patients (%): (19.44%)
  SAQ Question 1-7: Not limited, patients (%): (9.62%)
  SAQ Question 1-7: Other reasons, patients (%): (3.14%)
  SAQ Question 1-7: Severely limited, patients (%): (21.49%)
  SAQ Question 1-7: Slightly limited, patients (%): (21.28%)
  SAQ Question 1-8: Mildly limited, patients (%): (24.40%)
  SAQ Question 1-8: Moderately limited, patients (%): (22.43%)
  SAQ Question 1-8: Not limited, patients (%): (7.43%)
  SAQ Question 1-8: Other reasons, patients (%): (2.52%)
  SAQ Question 1-8: Severely limited, patients (%): (26.45%)
  SAQ Question 1-8: Slightly limited, patients (%): (16.77%)
Follow-up
  8th question: Dissatisfied, patients (%): (0.07%)
  8th question: Highly satisfied, patients (%): (28.16%)
  8th question: Mostly dissatisfied, patients (%): (0.64%)
  8th question: Mostly satisfied, patients (%): (60.27%)
  8th question: Partly satisfied, patients (%): (10.87%)
  9th question: Few, patients (%): (44.23%)
  9th question: Mild, patients (%): (27.32%)
  9th question: Moderate, patients (%): (3.87%)
  9th question: Severe, patients (%): (0.14%)
  9th question: Uneffective, patients (%): (24.44%)
  10th question: Dissatisfied, patients (%): (18.11%)
  10th question: Highly satisfied, patients (%): (9.51%)
  10th question: Mostly dissatisfied, patients (%): (19.38%)
  10th question: Mostly satisfied, patients (%): (32.21%)
  10th question: Partly satisfied, patients (%): (20.79%)
  11th question: Continuously worried, patients (%): (1.34%)
  11th question: No worried, patients (%): (8.74%)
  11th question: Occasionally worried, patients (%): (38.83%)
  11th question: Often worried, patients (%): (6.84%)
  11th question: Seldom worried, patients (%): (44.26%)
  SAQ 4th question, 1-2 times per week: % of patients: (13.17%)
  SAQ 4th question, 1-2 times per week: number of patients: 186
  SAQ 4th question, 1-3 times per week: % of patients: (2.83%)
  SAQ 4th question, 1-3 times per week: number of patients: 40
  SAQ 4th question, <1 time per week: % of patients: (16.08%)
  SAQ 4th question, <1 time per week: number of patients: 227
  SAQ 4th question, Not used: % of patients: (66.08%)
  SAQ 4th question, Not used: number of patients: 933
  SAQ 4th question, ≧3 times per week: % of patients: (1.84%)
  SAQ 4th question, ≧3 times per week: number of patients: 26
  SAQ 4th question, ≧4 times per day: % of patients: (0.00%)
  SAQ 4th question, ≧4 times per day: number of patients: 0
  SAQ 5th question, 1-2 times per week: % of patients: (32.86%)
  SAQ 5th question, 1-2 times per week: number of patients: 465
  SAQ 5th question, 1-3 times per day: % of patients: (3.18%)
  SAQ 5th question, 1-3 times per day: number of patients: 45
  SAQ 5th question, <1 time per week: % of patients: (31.24%)
  SAQ 5th question, <1 time per week: number of patients: 442
  SAQ 5th question, No onset: % of patients: (7.49%)
  SAQ 5th question, No onset: number of patients: 106
  SAQ 5th question, ≧3 times per week: % of patients: (25.09%)
  SAQ 5th question, ≧3 times per week: number of patients: 355
  SAQ 5th question, ≧4 times per day: % of patients: (0.14%)
  SAQ 5th question, ≧4 times per day: number of patients: 2
  SAQ 6th question, Dissatisfied: % of patients: (0.00%)
  SAQ 6th question, Dissatisfied: number of patients: 0
  SAQ 6th question, Highly satisfied: % of patients: (28.52%)
  SAQ 6th question, Highly satisfied: number of patients: 405
  SAQ 6th question, Mostly dissatisfied: % of patients: (0.63%)
  SAQ 6th question, Mostly dissatisfied: number of patients: 9
  SAQ 6th question, Mostly satisfied: % of patients: (62.25%)
  SAQ 6th question, Mostly satisfied: number of patients: 884
  SAQ 6th question, Partly satisfied: % of patients: (8.59%)
  SAQ 6th question, Partly satisfied: number of patients: 122
  SAQ 7th question, Dissatisfied: % of patients: (0.00%)
  SAQ 7th question, Dissatisfied: number of patients: 0
  SAQ 7th question, Highly satisfied: % of patients: (30.75%)
  SAQ 7th question, Highly satisfied: number of patients: 436
  SAQ 7th question, Mostly dissatisfied: % of patients: (0.28%)
  SAQ 7th question, Mostly dissatisfied: number of patients: 4
  SAQ 7th question, Mostly satisfied: % of patients: (62.13%)
  SAQ 7th question, Mostly satisfied: number of patients: 881
  SAQ 7th question, Partly satisfied: % of patients: (6.84%)
  SAQ 7th question, Partly satisfied: number of patients: 97
  SAQ Question 1-1 Mildly limited, number of patients: 6
  SAQ Question 1-1 Mildly limited, percent of patients: (0.43%)
  SAQ Question 1-1 Moderately limited, number of patients: 1
  SAQ Question 1-1 Moderately limited, percent of patients: (0.07%)
  SAQ Question 1-1 Not limited, number of patients: 1352
  SAQ Question 1-1 Not limited, percent of patients: (95.95%)
  SAQ Question 1-1 Other reasons, number of patients: 5
  SAQ Question 1-1 Other reasons, percent of patients: (0.35%)
  SAQ Question 1-1 Severely limited, number of patients: 1
  SAQ Question 1-1 Severely limited, percent of patients: (0.07%)
  SAQ Question 1-1 Slightly limited, number of patients: 44
  SAQ Question 1-1 Slightly limited, percent of patients: (3.12%)
  SAQ Question 1-2 Mildly limited, number of patients: 8
  SAQ Question 1-2 Mildly limited, percent of patients: (0.57%)
  SAQ Question 1-2 Moderately limited, number of patients: 0
  SAQ Question 1-2 Moderately limited, percent of patients: (0.00%)
  SAQ Question 1-2 Not limited, number of patients: 1336
  SAQ Question 1-2 Not limited, percent of patients: (94.82%)
  SAQ Question 1-2 Severely limited, number of patients: 2
  SAQ Question 1-2 Severely limited, percent of patients: (0.14%)
  SAQ Question 1-2 Slightly limited, number of patients: 56
  SAQ Question 1-2 Slightly limited, percent of patients: (3.97%)
  SAQ Question 1-6: Mildly limited, patients (%): (11.32%)
  SAQ Question 1-6: Moderately limited, patients (%): (9.19%)
  SAQ Question 1-6: Not limited, patients (%): (41.95%)
  SAQ Question 1-6: Other reasons, patients (%): (0.85%)
  SAQ Question 1-6: Severely limited, patients (%): (2.28%)
  SAQ Question 1-6: Slightly limited, patients (%): (34.40%)
  SAQ Question 1-7: Mildly limited, patients (%): (21.92%)
  SAQ Question 1-7: Moderately limited, patients (%): (6.63%)
  SAQ Question 1-7: Not limited, patients (%): (22.35%)
  SAQ Question 1-7: Other reasons, patients (%): (2.60%)
  SAQ Question 1-7: Severely limited, patients (%): (11.68%)
  SAQ Question 1-7: Slightly limited, patients (%): (34.82%)
  SAQ Question 1-8: Mildly limited, patients (%): (24.93%)
  SAQ Question 1-8: Moderately limited, patients (%): (11.85%)
  SAQ Question 1-8: Not limited, patients (%): (15.12%)
  SAQ Question 1-8: Other reasons, patients (%): (3.27%)
  SAQ Question 1-8: Severely limited, patients (%): (14.75%)
  SAQ Question 1-8: Slightly limited, patients (%): (30.09%)
[1]
  SAQ Question 1-2 Not limited, number of patients: 7
  SAQ Question 1-2 Not limited, percent of patients: (0.50%)
